In publication PMC12316308, “Interactions of substrates and phosphinyl containing inhibitors with bacterial and human zinc proteases” (PLOS One, 2025):
“And” between values parts separate entries of the source, which are not always exact repeats. Equal values may be shown once. “Also recorded” adds a separate entry of the source. Read-outs that look alike come from different tables or passages of the source.

What was measured:
[1] = molecular target: T1, Mag-Trypsin activated MMP-9 (MMP-9(MT)) (Homo sapiens, UniProt P14780); experiment: Enzyme inhibition kinetics, fluorogenic substrate ES001; type: biochemical; settings: for Vi/V0 avg: Trypsin activated MMP-9, average
T1 construct: made in house; host or cells: Sf9 and High Five insect cells

[2] = molecular target: T2, aureolysin (ALN) (Staphylococcus aureus, UniProt P81177); experiment: Enzyme inhibition kinetics, fluorogenic substrate ES005; type: biochemical; settings: for remaining activity at 100 µM: 100 µM inhibitor
T2 construct: purchased BioCentrum Ltd (Kraków, Poland)

[3] = molecular target: T3, pseudolysin (PLN, LasB) (Pseudomonas aeruginosa, UniProt P14756); experiment: as above; type: biochemical; settings: for remaining activity at 100 µM: 100 µM inhibitor
T3 construct: purchased Calbiochem (San Diego, CA, USA)

[4] = molecular target: T4, thermolysin (TLN) (Bacillus thermoproteolyticus, UniProt P00800); experiment: as above; type: biochemical; settings: for vi/v0 avg (time dependent inhibition, Supplementary Figure S8): Thermolysin, inhibitor 100 µM
T4 construct: purchased Calbiochem (San Diego, CA, USA)
Method in brief: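 Initial rates were read at 37 °C (ex 320/em 405 nm) with 4.0 µM substrate, ES001 for MMP-14 (1.0 nM) and ES005 for PLN (0.5 nM), TLN (0.21 nM), ALN (1.4 nM), in pH 7.5 Hepes, 10 mM CaCl2, 0.005% Brij-35, 1.0% DMSO. Enzymes were preincubated 30 min at room temperature or not; IC50 fitted, Ki from IC50 using Km.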

[5] = molecular target: MMP-9; settings: previously reported; cited from earlier work
[6] = molecular target: MMP-14; settings: previously reported; cited from earlier work

T3 sequence (P14756 198-498): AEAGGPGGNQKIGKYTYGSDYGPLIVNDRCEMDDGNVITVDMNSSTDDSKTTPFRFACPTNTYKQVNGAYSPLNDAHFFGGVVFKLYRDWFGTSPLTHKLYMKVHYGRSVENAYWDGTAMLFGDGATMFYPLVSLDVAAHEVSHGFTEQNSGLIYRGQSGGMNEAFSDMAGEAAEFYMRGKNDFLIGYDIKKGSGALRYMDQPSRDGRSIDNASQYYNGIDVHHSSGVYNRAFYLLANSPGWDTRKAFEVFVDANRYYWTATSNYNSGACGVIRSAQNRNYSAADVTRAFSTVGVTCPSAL
T4 sequence (P00800 233-548): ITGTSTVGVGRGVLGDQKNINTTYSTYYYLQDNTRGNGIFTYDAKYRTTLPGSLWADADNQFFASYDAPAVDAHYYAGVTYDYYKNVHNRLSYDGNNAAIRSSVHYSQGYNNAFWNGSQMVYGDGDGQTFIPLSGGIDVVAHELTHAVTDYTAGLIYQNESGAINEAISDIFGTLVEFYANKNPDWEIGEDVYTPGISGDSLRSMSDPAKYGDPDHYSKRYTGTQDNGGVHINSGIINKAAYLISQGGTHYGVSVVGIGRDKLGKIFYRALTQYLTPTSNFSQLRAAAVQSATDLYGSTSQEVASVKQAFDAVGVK
T1 sequence (P14780 107-707 limits assumed): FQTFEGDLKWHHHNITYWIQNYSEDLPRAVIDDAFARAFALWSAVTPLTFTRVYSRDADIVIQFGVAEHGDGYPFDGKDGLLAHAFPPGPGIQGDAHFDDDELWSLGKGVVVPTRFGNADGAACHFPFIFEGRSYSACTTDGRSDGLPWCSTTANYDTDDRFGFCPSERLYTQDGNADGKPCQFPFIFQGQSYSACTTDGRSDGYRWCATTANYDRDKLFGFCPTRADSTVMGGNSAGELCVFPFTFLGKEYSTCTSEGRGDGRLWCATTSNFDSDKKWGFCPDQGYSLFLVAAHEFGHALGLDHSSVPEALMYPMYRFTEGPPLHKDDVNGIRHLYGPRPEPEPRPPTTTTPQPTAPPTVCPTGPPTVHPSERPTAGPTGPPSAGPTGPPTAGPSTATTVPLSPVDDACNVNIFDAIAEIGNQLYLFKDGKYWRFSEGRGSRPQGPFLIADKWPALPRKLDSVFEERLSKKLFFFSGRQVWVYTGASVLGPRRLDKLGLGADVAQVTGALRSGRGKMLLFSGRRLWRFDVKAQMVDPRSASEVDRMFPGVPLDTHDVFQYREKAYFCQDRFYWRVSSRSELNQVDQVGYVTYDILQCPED
T2 sequence (P81177 209-509): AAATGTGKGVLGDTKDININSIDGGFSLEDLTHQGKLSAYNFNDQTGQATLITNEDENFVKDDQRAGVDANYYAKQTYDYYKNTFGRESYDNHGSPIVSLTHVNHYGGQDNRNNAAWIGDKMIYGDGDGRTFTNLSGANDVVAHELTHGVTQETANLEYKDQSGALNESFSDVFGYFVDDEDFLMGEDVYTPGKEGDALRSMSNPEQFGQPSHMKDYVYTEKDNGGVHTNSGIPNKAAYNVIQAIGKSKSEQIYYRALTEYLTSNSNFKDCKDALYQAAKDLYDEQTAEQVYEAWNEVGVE

NC(=O)C(CCC(=O)O)NC(=O)C(CCC(=O)O)NC(=O)C(Cc1cc(-c2ccc(-c3cccc(Cl)c3)cc2)no1)CP(=O)(O)c1ccc(Br)cc1 (stereo not drawn) [H-1]
Vi/V0 avg ([1]; [H1] 30 μM): 0.6506 | Vi/V0 avg ([1]; [H1] 40 μM): 0.6729 | Vi/V0 avg ([1]; [H1] 50 μM): 0.6218 | Vi/V0 avg ([1]; [H1] 60 μM): 0.5683 | Vi/V0 avg ([1]; [H1] 70 μM): 0.5353 | Vi/V0 avg ([1]; [H1] 80 μM): 0.5363 | Vi/V0 avg ([1]; [H1] 90 μM): 0.4452 | Vi/V0 avg ([1]; [H1] 100 μM): 0.4212 | vi/v0 Av (bar diagram figure 7) ([1]; rMMP-9 (Mag-trypsin activated), inhibitor 100 μM, average over 0, 15, 30 min preincubation): 0.4755 | vi/v0 (relative enzyme activity with inhibitor), single determinations ([1]; rMMP-9 (Mag-trypsin activated), inhibitor 100 μM, preincubation 0 min): 0.4571 and 0.4536 and 0.4887 and 0.489 | vi/v0 (relative enzyme activity with inhibitor), single determinations ([1]; rMMP-9 (Mag-trypsin activated), inhibitor 100 μM, preincubation 15 min): 0.3806 and 0.5206 and 0.4881 and 0.528 | vi/v0 (relative enzyme activity with inhibitor), single determinations ([1]; rMMP-9 (Mag-trypsin activated), inhibitor 100 μM, preincubation 30 min): 0.4739 and 0.4997 and 0.4971 and 0.4295 | remaining activity at 10 µM ([1]; read-out: Vi/V0, Trypsin activated MMP-9, [H1] 10 μM, replicate vi over each of 4 controls): 76.1% | remaining activity at 40 µM ([1]; read-out: Vi/V0, Trypsin activated MMP-9, [H1] 40 μM, replicate vi over each of 4 controls): 63.2% | remaining activity at 50 µM ([1]; read-out: Vi/V0, Trypsin activated MMP-9, [H1] 50 μM, replicate vi over each of 4 controls): 58.9% | remaining activity at 60 µM ([1]; read-out: Vi/V0, Trypsin activated MMP-9, [H1] 60 μM, replicate vi over each of 4 controls): 52.9% | remaining activity at 70 µM ([1]; read-out: Vi/V0, Trypsin activated MMP-9, [H1] 70 μM, replicate vi over each of 4 controls): 49.6% | remaining activity at 80 µM ([1]; read-out: Vi/V0, Trypsin activated MMP-9, [H1] 80 μM, replicate vi over each of 4 controls): 51% | remaining activity at 90 µM ([1]; read-out: Vi/V0, Trypsin activated MMP-9, [H1] 90 μM, replicate vi over each of 4 controls): 44.2% | remaining activity at 100 µM ([1]; read-out: Vi/V0, Trypsin activated MMP-9, [H1] 100 μM, replicate vi over each of 4 controls): 40.5% | remaining activity at 100 µM ([1]; read-out: vi/v0 (single replicate), rMMP-9 (Mag-trypsin activated), 100 µM inhibitor, no preincubation): 45.7% | remaining activity at 100 µM ([1]; read-out: vi/v0 avg, rMMP-9 (Mag-trypsin activated), 100 µM inhibitor, no preincubation): 47.2% | remaining activity at 100 µM ([2]; 0.25 h, read-out: vi/v0 (single replicate), Aureolysin, 15 min pre incubation): 81.9% | remaining activity at 100 µM ([2]; 0.25 h, read-out: vi/v0 avg, Aureolysin, 15 min pre incubation): 88.7% | remaining activity at 100 µM ([2]; 0.5 h, read-out: vi/v0 (single replicate), Aureolysin, 30 min pre incubation): 89.6% | remaining activity at 100 µM ([2]; 0.5 h, read-out: vi/v0 avg, Aureolysin, 30 min pre incubation): 89.8% | inhibitory effect on enzymatic activity ([2]; ALN, 100 μM compound, in words, 100 µM): did not inhibit; also recorded: no inhibition | vi/v0 Av (bar diagram figure 7) ([2]; Aureolysin (ALN), inhibitor 100 μM, average over 0, 15, 30 min preincubation): 0.886 | vi/v0 (relative enzyme activity with inhibitor), single determinations ([2]; Aureolysin (ALN), inhibitor 100 μM, preincubation 0 min): 0.8363 and 0.9057 and 0.9048 and 0.862 | vi/v0 (relative enzyme activity with inhibitor), single determinations ([2]; Aureolysin (ALN), inhibitor 100 μM, preincubation 15 min): 0.8192 and 0.9295 and 0.9112 | vi/v0 (relative enzyme activity with inhibitor), single determinations ([2]; Aureolysin (ALN), inhibitor 100 μM, preincubation 30 min): 0.8961 and 0.9218 and 0.8734 | remaining activity at 100 µM ([2]; read-out: vi/v0 (single replicate), Aureolysin, no preincubation): 83.6% | remaining activity at 100 µM ([2]; read-out: vi/v0 avg, Aureolysin, no preincubation): 87.7% | remaining activity at 100 µM ([3]; 0.25 h, read-out: vi/v0 (single replicate), Pseudolysin, 15 min pre incubation): 97.4% | remaining activity at 100 µM ([3]; 0.25 h, read-out: vi/v0 avg, Pseudolysin, 15 min pre incubation): 100% | remaining activity at 100 µM ([3]; 0.5 h, read-out: vi/v0 (single replicate), Pseudolysin, 30 min pre incubation): 99% | remaining activity at 100 µM ([3]; 0.5 h, read-out: vi/v0 avg, Pseudolysin, 30 min pre incubation): 96.9% | inhibitory effect on enzymatic activity ([3]; PLN, 100 μM compound, in words, 100 µM): did not inhibit; also recorded: no inhibition | vi/v0 Av (bar diagram figure 7) ([3]; Pseudolysin (PLN), inhibitor 100 μM, average over 0, 15, 30 min preincubation): 0.993 | vi/v0 (relative enzyme activity with inhibitor), single determinations ([3]; Pseudolysin (PLN), inhibitor 100 μM, preincubation 0 min): 0.9731 and 1.039 and 1.005 and 1.023 | vi/v0 (relative enzyme activity with inhibitor), single determinations ([3]; Pseudolysin (PLN), inhibitor 100 μM, preincubation 15 min): 0.9736 and 1.014 and 0.9905 and 1.0217 | vi/v0 (relative enzyme activity with inhibitor), single determinations ([3]; Pseudolysin (PLN), inhibitor 100 μM, preincubation 30 min): 0.9904 and 0.9857 and 0.9514 and 0.949 | remaining activity at 100 µM ([3]; read-out: vi/v0 (single replicate), Pseudolysin, no preincubation): 97.3% | remaining activity at 100 µM ([3]; read-out: vi/v0 avg, Pseudolysin, no preincubation): 101% | inhibitory effect on enzymatic activity ([4]; TLN, 100 μM compound, in words, 100 µM): did not inhibit; also recorded: no inhibition | vi/v0 Av (bar diagram figure 7) ([4]; Thermolysin (TLN), inhibitor 100 μM, average over 0, 15, 30 min preincubation): 1.079 | vi/v0 (relative enzyme activity with inhibitor), single determinations ([4]; Thermolysin (TLN), inhibitor 100 μM, preincubation 0 min): 1.072 and 1.233 and 0.6933 and 1.269 | vi/v0 (relative enzyme activity with inhibitor), single determinations ([4]; Thermolysin (TLN), inhibitor 100 μM, preincubation 15 min): 1.072 and 0.7991 and 1.161 and 1.236 | vi/v0 (relative enzyme activity with inhibitor), single determinations ([4]; Thermolysin (TLN), inhibitor 100 μM, preincubation 30 min): 1.057 and 0.7107 and 1.167 and 1.093 | vi/v0 avg (time dependent inhibition, Supplementary Figure S8) ([4]; 15 min pre incubation): 1.067 | vi/v0 avg (time dependent inhibition, Supplementary Figure S8) ([4]; 30 min pre incubation): 1.007 | vi/v0 avg (time dependent inhibition, Supplementary Figure S8) ([4]; No preincubation): 1.0666 | Ki [5]: 1300 nM | Ki [6]: 140 nM
